What was measured:
Plasma leptin = Plasma leptin levels by commercial radioimmunoassay kit; assay type: in vivo, rat; details: rats, 10.0 mg/kg orally once daily, end of 14 week study, vs control
Experimental: (§1) Single-housed rats weighing 230-350 grams at the start of the experiment were provided free access to laboratory rodent chow pellets and tap water. Rats were divided into two groups, eight rats per group, matched for food intake and body weight over a two week baseline period. […] The second group of rats (control rats) was similarly administered drug vehicle (0.25% methyl cellulose solution). Body weight and food intake were measured once a week for 14 weeks.
At the end of the experiment, rats were killed by exposure to carbon dioxide. Blood was collected by cardiac puncture, and rats were shaved and eviscerated. Retroperitoneal white adipose tissue, epidydimal white adipose tissue, adrenal gland, liver, kidney and testes were rapidly dissected and weighed. Plasma leptin levels were measured using a commercial radioimmunoassay kit.

[1] = Terminal tissue and organ weights (fat pads, adrenal gland, liver, kidney, testes); details: 10.0 mg/kg orally once daily, end of 14 week study
[2] = Terminal carcass composition (lipid, water, fat free dry weight); assay type: in vivo, rat; details: 10.0 mg/kg orally once daily
Experimental: as §1
Terminal carcass composition was measured. Shaved, eviscerated rats were coarsely ground and dried to a constant weight at 70° C. Dehydrated carcasses were finely ground in a blender. Lipid was extracted from a homogeneous sample with petroleum ether. Water and lipid contents were determined gravimetrically, and the remaining carcass component was termed fat free dry weight.

[3] = Body weight and food intake in rats dosed for 14 weeks; assay type: in vivo, rat
Experimental: as §1

In the case of `C#CCN(C)[C@H](C)Cc1ccccc1` [L-selegiline], the “plasma leptin levels reduced” value (Plasma leptin) is reported as 41%, the “epidydimal fat pad weighed less than in control rats” value [1] is reported as 23% and the “retroperitoneal fat pad weighed less than in control rats” value [1] is reported as 27%. The “weight of non-fat organs (adrenal gland, liver, kidney, testes)” value ([1]; rats) was “did not weigh less”, the “adipose tissue gain less than that of untreated control rats” value ([2]; 14 weeks) was 94% and the “share of the overall 34 gram weight loss accounted for by body fat reduction” value ([2]; rats, 14 weeks) was 94%. For the same compound, the lean body mass ([2]; rats, terminal carcass) was “no reduction”, the “whole carcass water content” value ([2]; rats, terminal carcass) was “no reduction” and the “lower weight gain compared to control rats” value ([3]; 10.0 mg/kg L-selegiline hydrochloride orally by gavage once daily, 14 week study) was 14%. The “weight gain less than untreated counterparts” value ([3]; 10.0 mg/kg orally once daily, 14 week study) was “approximately 34 g” and the “food intake versus control group” value ([3]; 10.0 mg/kg orally once daily, 14 weeks) was “comparable”.

From US20070078172A1, “MAO-B INHIBITORS USEFUL FOR TREATING OBESITY” (JENRIN DISCOVERY, priority 2005, published 2007)
